Results: patent US12485089B1, “Adhering lozenge with high amount of sparsely soluble active ingredient” (Quest Products, LLC, priority 2025, dated 2025)

Assay: Time to complete dissolution of compressed tablets of bulking agents/compression binders in water
Assay type: physicochemical
Conditions: 750 mg tablet, 12 mm diameter, pressed at 32 kN, 1.5 L water in 2 L beaker, room temperature (69° F.)
Excerpt: To compare the speed of dissolution of any ingredients acting as a binder and/or bulking agent to the speed of dissolution of isomalt, a tablet can be formed of each and the time of dissolution for each can be measured. As used herein, the term “rate of dissolution” when comparing one or more binder and bulking agent ingredients to isomalt refers to the following procedure. The tablets should have the same diameter, shape, and weight and should be prepared by pressing with the same compression force (e.g., 32 kN) using a tablet press. Two equal beakers (e.g., 2 L) each containing an equal amount of distilled water (e.g., 1.5 L) and each at the same room temperature (i.e., at 69° F.) and atmospheric pressure are prepared. One tablet containing isomalt (commercially available FCC or USP grade isomalt particles) is placed in one of the beakers of water. The other tablet formed of the test binder and/or bulking agent are placed in the other of the beakers of water. The two beakers are then visually observed to determine which of the tablets dissolves completely first.
To identify suitable bulking agents and compression binders that dissolve quickly enough to allow suitable release of the preferred amount of antacid particles having low solubility in saliva, tablets of equal diameter (12 mm) and a weight of 750 mg±4 mg were made with commercially available particles of the bulking agents and/or compression binders listed in the table below, each compressed using a tablet press by placing the ingredients in a die and pressing with an equal pressure of 32 kN±3 kN to form the tablets. The tablets were simultaneously placed in equal size beakers (2 L) each containing an equal amount of water (1.5 L±15 mL) at room temperature (69° F.) and the time to complete dissolution was measured for each tablet. The dissolution times are shown below.

Row | Dissolution time [min] | Molecule
1 | 29 | OC[C@@H](O)[C@@H](O[C@H]1O[C@H](CO)[C@@H](O)[C@H](O)[C@H]1O)[C@H](O)[C@@H](O)CO [Maltitol]
2 | 38 | Isomalt
3 | 50 | OC[C@@H](O)[C@@H](O)[C@H](O)[C@H](O)CO [Mannitol]
4 | 20 | OC[C@@H](O)[C@@H](O)[C@H](O)[C@@H](O)CO [Sorbitol]
